Here are results for two compounds from ChEMBL document CHEMBL3112555, “Danshen diversity defeating dementia” (Bioorg Med Chem Lett, 2014).

Common to all, as to conditions: in vivo
The nature of data set [1]: Oral bioavailability in rat at 100 mg/kg. Format: ADME, organism-based.
A short description of data set [2]: Bioavailability in rat at 100 mg/kg, ip. The format is ADME, organism-based.
Data set [3] in a line: Bioavailability in beagle dog. The format is ADME, organism-based, Canis lupus familiaris.

Regarding `C[C@H]1COC2=C1C(=O)C(=O)c1c2ccc2c1CCCC2(C)C` [CRYPTOTANSHINONE], the bioavailability in data set [1] turned out to be 2.1%; in data set [2], 10.6%. `O=C(/C=C/c1ccc(O)c(O)c1/C=C/c1ccc(O)c(O)c1)O[C@H](Cc1ccc(O)c(O)c1)C(=O)O` [SALVIANOLIC ACID A] yielded a bioavailability in data set [3] of 1.47%.

In general, bioavailability refers to the share of a dose that reaches the circulation, judged against a reference dose that is usually intravenous.
